The record followed here is the NIST ThermoML archive (doi:10.1016/j.jct.2017.07.011).

± gives the expanded uncertainty stated by the source.

The conditions of this data set: 100 kPa, Liquid, Vibrating tube method.

Consider `CCC(C)(C)O` [2-methylbutan-2-ol], for which the mass density (in general, mass per unit of volume) (273.65 K) is recorded as 826.7 ± 2 kg/m3; the mass density (274.15 K) worked out at 826.3 ± 2 kg/m3; the mass density (274.65 K) is listed as 825.8 ± 2 kg/m3; the mass density (275.15 K) was found to be 825.4 ± 2 kg/m3; the mass density (275.65 K) is on record as 824.9 ± 2 kg/m3; the mass density (276.15 K) is on record as 824.5 ± 2 kg/m3. Also, the mass density was 824 ± 2 kg/m3 (276.65 K); 823.5 ± 2 kg/m3 (277.15 K); 823.1 ± 2 kg/m3 (277.65 K); 822.6 ± 2 kg/m3 (278.15 K); 822.2 ± 2 kg/m3 (278.65 K); 821.7 ± 2 kg/m3 (279.15 K). In addition, the mass density is, setting by setting: (279.65 K) 821.3 ± 2 kg/m3; (280.15 K) 820.8 ± 2 kg/m3; (280.65 K) 820.3 ± 2 kg/m3; (281.15 K) 819.9 ± 2 kg/m3; (281.65 K) 819.4 ± 2 kg/m3; (282.15 K) 819 ± 2 kg/m3.

Take `CCC(O)CC` [3-pentanol]: the mass density is, setting by setting: (273.65 K) 835.7 ± 2.1 kg/m3; (274.15 K) 835.3 ± 2.1 kg/m3; (274.65 K) 834.9 ± 2.1 kg/m3; (275.15 K) 834.5 ± 2.1 kg/m3; (275.65 K) 834.1 ± 2.1 kg/m3; (276.15 K) 833.7 ± 2.1 kg/m3. For the same compound, the mass density (276.65 K) is given as 833.3 ± 2.1 kg/m3; the mass density (277.15 K) amounted to 832.9 ± 2.1 kg/m3; the mass density (277.65 K) was found to be 832.5 ± 2.1 kg/m3; the mass density (278.15 K) is listed as 832.1 ± 2.1 kg/m3; the mass density (278.65 K) is listed as 831.7 ± 2.1 kg/m3; the mass density (279.15 K) came to 831.3 ± 2.1 kg/m3. For the same compound, the mass density (279.65 K) is recorded as 830.9 ± 2.1 kg/m3; the mass density (280.15 K) was 830.5 ± 2.1 kg/m3; the mass density (280.65 K) amounted to 830.1 ± 2.1 kg/m3; the mass density (281.15 K) was 829.7 ± 2.1 kg/m3; the mass density (281.65 K) was determined as 829.3 ± 2.1 kg/m3; the mass density (282.15 K) is recorded as 828.9 ± 2.1 kg/m3.

Regarding `CCCC(C)O` (centres undefined) [pentan-2-ol], the mass density is 824 ± 2.1 kg/m3 (273.65 K); 823.6 ± 2.1 kg/m3 (274.15 K); 823.2 ± 2.1 kg/m3 (274.65 K); 822.8 ± 2.1 kg/m3 (275.15 K); 822.5 ± 2.1 kg/m3 (275.65 K); 822.1 ± 2.1 kg/m3 (276.15 K). The mass density reads like this: (276.65 K) 821.7 ± 2.1 kg/m3; (277.15 K) 821.3 ± 2.1 kg/m3; (277.65 K) 820.9 ± 2.1 kg/m3; (278.15 K) 820.6 ± 2.1 kg/m3; (278.65 K) 820.2 ± 2.1 kg/m3; (279.15 K) 819.8 ± 2.1 kg/m3. The mass density is 819.4 ± 2.1 kg/m3 (279.65 K); 819.1 ± 2.1 kg/m3 (280.15 K); 818.7 ± 2.1 kg/m3 (280.65 K); 818.3 ± 2.1 kg/m3 (281.15 K); 817.9 ± 2.1 kg/m3 (281.65 K); 817.5 ± 2.1 kg/m3 (282.15 K).
